{"source": "patent US10562910B2", "about": "“Nitrogen-containing tricyclic compounds and uses thereof in medicine” (SUNSHINE LAKE PHARMA CO., LTD., priority 2016, dated 2020)", "key": {"FXR-LBD": {"target": "FXR-LBD (Homo sapiens (Human), UniProt Q96RI1)", "sequence (Q96RI1 262-486)": "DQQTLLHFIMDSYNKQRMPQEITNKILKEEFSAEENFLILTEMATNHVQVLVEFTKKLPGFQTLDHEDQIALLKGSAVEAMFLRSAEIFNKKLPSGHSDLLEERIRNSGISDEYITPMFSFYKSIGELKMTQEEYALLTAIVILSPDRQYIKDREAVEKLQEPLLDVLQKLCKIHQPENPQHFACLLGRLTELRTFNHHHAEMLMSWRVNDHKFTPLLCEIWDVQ", "experiment": "TR-FRET Farnesoid X Receptor Coactivator Assay", "type": "biochemical", "conditions": "TR-FRET farnesoid X receptor protein coactivator activity", "method": "Purchasing invitrogen PV4833 kits. The procedure refers to LanthaScreen™ TR-FRET Farnesoid X Receptor Coactivator Assay\nFirst, the required amount of the compound was weighed and dissolved in 100% DMSO at the maximum concentration of 3000 μM. The solution at the maximum concentration was diluted by 3-fold serial dilution in DMSO to get 10 concentrations;\nSecond, the above prepared solutions of different concentrations were diluted to 50-fold with a buffer supplied with the kit, to 2× compound solution, followed by mixing and then 10 μL of the diluted solution was added to a 384 well plate;\nThird, FXR-LBD was diluted with a buffer to 4× solution, and 5 μL of the diluent was added to the 384 well plate of second step;\nFourth, Fluorescein-SRC2-2 and Tb anti-GST antibody were diluted to 4× Fluorescein-SRC2-2 and Tb anti-GST antibody solution. Then two reagents were mixed together, and 5 μL of the mixture was added to the 384 well plate of third step;\nFinally, the solution of the 384 well above was mixed uniformly by centrifuging, and then incubated at room temperature for 1 h. Then the TR-FRET Endpoint method was used for measuring the solution at wavelengths of 520 nm, 495 nm and 337 nm."}, "[1]": {"target": "FXR ligand binding domain (LBD) (Homo sapiens (Human), UniProt Q96RI1)", "sequence (Q96RI1 261-481)": "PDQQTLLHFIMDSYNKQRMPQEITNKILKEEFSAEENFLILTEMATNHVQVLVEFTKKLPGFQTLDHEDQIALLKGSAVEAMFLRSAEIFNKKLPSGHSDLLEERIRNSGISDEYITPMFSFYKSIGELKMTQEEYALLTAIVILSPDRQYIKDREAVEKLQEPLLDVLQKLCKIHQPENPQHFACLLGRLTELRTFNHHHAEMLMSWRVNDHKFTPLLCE", "experiment": "Mammalian one hybrid (M1H) GAL4 reporter gene assay in HEK293 cells", "type": "cell-based", "conditions": "GAL4 reporter gene test", "excerpt": "Mammalian one hybrid technology is also called chimeric receptor gene assay. Based on the GAL4 chimera receptor assay, the activity of compounds which mediated activation of FXR was detected by dual luciferase reporter assay. The methods were as follows: cDNA encoding the FXR ligand binding domain (LBD), the yeast GAL4 DNA binding domain (DBD) and the Renilla luciferase DNA were fused to construct a chimera expression plasmid pBIND-FXR (Promega). […] The plasmid pG5Luc (Promega) was used as the reporter plasmid, containing the GAL4 upstream activation sequence (UAS) and the Firefly luciferase receptor gene. All GAL4 reporter gene assays were done in HEK293 cells. Cells were cultured at 37° C., 5% CO2 under humidified conditions. […] The contents were mixed completely and incubated the mixtures for 15 minutes at room temperature. The volume of the transfection mixture was 2.5 μl/well. Trypsinized and diluted the cell slurry at a density of […] (100 μl/well for 96-well plate). Then added required volume of transfection mixture prepared previously into the cell slurry, and dispensed 100 μl/well of the cell slurry into the 96-well plate and incubated the plate for 24 hours at 37° C., 5% CO2 under humidified conditions. Compounds prediluted in complete medium were added into each well and then incubated at 37° C., 5% CO2 under humidified conditions for 18 hours. The firefly and renilla luciferase signal was assayed by Promega's Dual Luciferase Reporter Assay System.\nThe % Activation value was calculated by the following equation: Activation %=[(X−Min)/(Max−Min)]×100%. “X” is the “F/R” value from compounds. “F/R” means “Firefly/Renilla”. “Min” is the mean “F/R” value from no compound control. “Max” is the mean “F/R” value from reference compound control. Finally, the EC50 value of each compounds were calculated by GraphPrism 5.0."}}, "data": [{"smiles": "O=C(O)c1cc2c(cc1O)CCc1nc(OCc3c(-c4c(Cl)cccc4Cl)noc3C3CC3)ccc1O2", "note": "[Example 11, 2-((5-cyclopropyl-3-(2,6-dichlorophenyl)isoxazol-4-yl)methoxy)-8-hydroxy-10,11-dihydrobenzo[6,7]oxepino[3,2-b]pyridine-7-carboxylic acid]", "values": [{"measurement": "EC50", "setting": "FXR-LBD", "result": 17, "unit": "nM"}, {"measurement": "EC50", "setting": "[1]", "result": 105, "unit": "nM"}]}]}
